The record followed here is PubChem BioAssay AID248 (DTP/NCI, 2004).

For this assay, the system named is L1210 leukemia ip in BDF1 mice, survival T/C. Nature of the assay: NCI In Vivo Anticancer Drug Screen. Data for tumor model L1210 Leukemia (intraperitoneal) in B6D2F1 (BDF1) mice. As to conditions: endpoint: mean survival time, higher = longer survival. In a few lines:
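Mice bearing the transplanted tumor received compound or vehicle. Survival of the treated group was divided by that of the vehicle-treated control group to give the ratio.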

[1] abbreviates: dose: 100.0 mg/kg/injection, schedule: Q04DX003 (ip), vehicle: saline with Tween-80.
Setting [2] is: dose: 200.0 mg/kg/injection, schedule: Q04DX003 (ip), vehicle: saline with Tween-80.
Setting [3] is: dose: 400.0 mg/kg/injection, schedule: Q04DX003 (ip), vehicle: saline with Tween-80.
Where [4] appears, read: dose: 100.0 mg/kg/injection, schedule: Q01DX001 (ip), vehicle: carboxymethylcellulose (CMC).
Where [5] appears, read: dose: 200.0 mg/kg/injection, schedule: Q01DX001 (ip), vehicle: carboxymethylcellulose (CMC).
Where [6] appears, read: dose: 400.0 mg/kg/injection, schedule: Q01DX001 (ip), vehicle: carboxymethylcellulose (CMC).
Setting [7] is: dose: 12.5 mg/kg/injection, schedule: Q01DX009 (ip), vehicle: saline.
[8] abbreviates: dose: 25.0 mg/kg/injection, schedule: Q04DX003 (ip), vehicle: Klucel (hydroxypropylcellulose) (HPC).
The mark [9] stands for this setting: dose: 50.0 mg/kg/injection, schedule: Q04DX003 (ip), vehicle: Klucel (hydroxypropylcellulose) (HPC).
Where [10] appears, read: dose: 100.0 mg/kg/injection, schedule: Q01DX009 (ip), vehicle: Klucel (hydroxypropylcellulose) (HPC).
[11] abbreviates: dose: 200.0 mg/kg/injection, schedule: Q01DX009 (ip), vehicle: Klucel (hydroxypropylcellulose) (HPC).
Setting [12] is: dose: 400.0 mg/kg/injection, schedule: Q01DX009 (ip), vehicle: Klucel (hydroxypropylcellulose) (HPC).
[13] abbreviates: dose: 100.0 mg/kg/injection, schedule: Q01DX001 (ip), vehicle: Klucel (hydroxypropylcellulose) (HPC).
[14] abbreviates: dose: 200.0 mg/kg/injection, schedule: Q01DX001 (ip), vehicle: Klucel (hydroxypropylcellulose) (HPC).
[15] abbreviates: dose: 400.0 mg/kg/injection, schedule: Q01DX001 (ip), vehicle: Klucel (hydroxypropylcellulose) (HPC).
[16] abbreviates: dose: 100.0 mg/kg/injection, schedule: Q04DX002 (ip), vehicle: saline with Tween-80.
[17] abbreviates: dose: 200.0 mg/kg/injection, schedule: Q04DX002 (ip), vehicle: saline with Tween-80.
The mark [18] stands for this setting: dose: 400.0 mg/kg/injection, schedule: Q04DX002 (ip), vehicle: saline with Tween-80.

Values joined by “and” are separate entries in the source; they are usually repeats but may differ in a detail not shown here. Equal values may be shown once. Inconclusive results and toxic doses are left out.

`O=CC1(c2ccccc2)SCCCS1`: the T/C is 106 % of control (dose: 100.0 mg/kg/injection, schedule: Q04DX003 (ip), vehicle: saline); 97 % of control (dose: 200.0 mg/kg/injection, schedule: Q04DX003 (ip), vehicle: saline); 100 % of control (dose: 400.0 mg/kg/injection, schedule: Q04DX003 (ip), vehicle: saline).
`C=CCc1c(F)c(F)c(F)c(F)c1F`: the T/C by setting is: under setting [1], 97 % of control; under setting [2], 95 % of control; under setting [3], 98 % of control.
On to `CCOC(=O)c1ccc(N(CC2CO2)S(=O)(=O)c2ccc(C)cc2)cc1` (stereo not given), for which the T/C reads like this: under setting [1], 105 % of control; under setting [2], 90 % of control; under setting [3], 92 % of control.
For `CCCCC(=O)N/N=C\c1ccc(N(CC)CC)cc1`, the T/C was 95 % of control under setting [4], 87 % of control under setting [5] and 87 % of control under setting [6].
With `C1CCN(SN2CCCCC2)CC1`, the T/C runs as follows: (dose: 100.0 mg/kg/injection, schedule: Q01DX009 (ip), vehicle: saline) 100 % of control; (dose: 200.0 mg/kg/injection, schedule: Q01DX009 (ip), vehicle: saline) 102 % of control.
Regarding `CCCC[As](=O)(O)CC(C)C`, the T/C (dose: 6.25 mg/kg/injection, schedule: Q01DX009 (ip), vehicle: saline) is 93 % of control and the T/C under setting [7] was 101 % of control.
`c1ccc2c(OCCN3CC3)nccc2c1`: the T/C under setting [4] was 103 % of control and the T/C under setting [5] is 113 % of control.
`CC(=O)Oc1c(C)cc([N+](=O)[O-])cc1[N+](=O)[O-]`: the T/C is, setting by setting: under setting [8], 91 % of control; under setting [9], 86 % of control.
In the case of `CC1(CO)C2CCC(CC2)C1CO` (stereo not given), the T/C (dose: 100.0 mg/kg/injection, schedule: Q04DX003 (ip), vehicle: acetone) is 98 % of control; the T/C (dose: 200.0 mg/kg/injection, schedule: Q04DX003 (ip), vehicle: acetone) is 96 % of control; the T/C (dose: 400.0 mg/kg/injection, schedule: Q04DX003 (ip), vehicle: acetone) is 93 % of control.
Take `CN(C(=O)Nc1cccc(C(F)(F)F)c1)c1ccccc1`: the T/C is 98 % of control under setting [10], 96 % of control under setting [11] and 101 % of control under setting [12].
As for `CC(=O)c1cccc(NC(=O)Oc2ccc(C(=O)OCc3ccccc3)cc2)c1`, the T/C under setting [10] was 98 % of control, the T/C under setting [11] is 95 % of control and the T/C under setting [12] was 106 % of control.
For `CN(C)c1ccc(/C=N\NC(=O)N/N=C/c2ccc(N(C)C)cc2)cc1`, the T/C reads like this: (dose: 25.0 mg/kg/injection, schedule: Q01DX001 (ip), vehicle: Klucel (hydroxypropylcellulose) (HPC)) 92 % of control; (dose: 50.0 mg/kg/injection, schedule: Q01DX001 (ip), vehicle: Klucel (hydroxypropylcellulose) (HPC)) 97 % of control; under setting [13], 97 % of control and 90 % of control.
Regarding `O=C(C(O[N+](=O)[O-])c1ccccc1)C(O[N+](=O)[O-])c1ccccc1` (stereo not given), the T/C under setting [13] was 95 % of control, the T/C under setting [14] was 95 % of control and the T/C under setting [15] is 93 % of control.
For the compound `O=C1c2cccc([N+](=O)[O-])c2C(=O)c2c1cccc2[N+](=O)[O-]`, the T/C by setting is: under setting [16], 93 % of control; under setting [17], 104 % of control; under setting [18], 100 % of control.
For the compound `CC1=CC(=O)CC(C)C2CC(=C(C)C)CC12` (stereo not given), the T/C by setting is: (dose: 100.0 mg/kg/injection, schedule: Q04DX003 (ip), vehicle: Klucel (hydroxypropylcellulose) (HPC)) 100 % of control; (dose: 200.0 mg/kg/injection, schedule: Q04DX003 (ip), vehicle: Klucel (hydroxypropylcellulose) (HPC)) 108 % of control; (dose: 400.0 mg/kg/injection, schedule: Q04DX003 (ip), vehicle: Klucel (hydroxypropylcellulose) (HPC)) 100 % of control.
In the case of `COC(=O)/C(C#N)=N/O`, the T/C (dose: 50.0 mg/kg/injection, schedule: Q01DX009 (ip), vehicle: saline with Tween-80) is 102 % of control; the T/C (dose: 100.0 mg/kg/injection, schedule: Q01DX009 (ip), vehicle: saline with Tween-80) was 97 % of control; the T/C under setting [1] is 100 % of control; the T/C (dose: 200.0 mg/kg/injection, schedule: Q01DX009 (ip), vehicle: saline with Tween-80) was 94 % of control; the T/C under setting [2] was 94 % of control.
For the compound `COc1cc(C(=O)Cl)cc(OC)c1OC`, the T/C by setting is: (dose: 18.75 mg/kg/injection, schedule: Q04DX003 (ip), vehicle: saline with Tween-80) 107 % of control; (dose: 37.5 mg/kg/injection, schedule: Q04DX003 (ip), vehicle: saline with Tween-80) 102 % of control; (dose: 75.0 mg/kg/injection, schedule: Q04DX003 (ip), vehicle: saline with Tween-80) 95 % of control.
Regarding `CC([NH-])C[NH-].[Cl][Pd][Cl]` (stereo not given), the T/C (dose: 6.25 mg/kg/injection, schedule: Q04DX002 (ip), vehicle: Klucel (hydroxypropylcellulose) (HPC)) is 93 % of control; the T/C (dose: 12.5 mg/kg/injection, schedule: Q04DX002 (ip), vehicle: Klucel (hydroxypropylcellulose) (HPC)) is 102 % of control and 93 % of control; the T/C (dose: 12.5 mg/kg/injection, schedule: Q04DX003 (ip), vehicle: Klucel (hydroxypropylcellulose) (HPC)) is 96 % of control; the T/C (dose: 25.0 mg/kg/injection, schedule: Q04DX002 (ip), vehicle: Klucel (hydroxypropylcellulose) (HPC)) is 90 % of control; the T/C under setting [8] was 94 % of control; the T/C (dose: 50.0 mg/kg/injection, schedule: Q04DX002 (ip), vehicle: Klucel (hydroxypropylcellulose) (HPC)) is 90 % of control. Besides, the T/C under setting [9] is 91 % of control.
Take `OCCN1CCN(C(=S)[S-])CC1.OCCN1CCN(C(=S)[S-])CC1.[Zn]`: the T/C reads like this: (dose: 10.0 mg/kg/injection, schedule: Q04DX003 (ip), vehicle: saline) 93 % of control; (dose: 20.0 mg/kg/injection, schedule: Q04DX003 (ip), vehicle: saline) 90 % of control.
Consider `N/N=C/C=N/Nc1cnccn1`, for which the T/C under setting [10] was 106 % of control and the T/C under setting [11] is 86 % of control.
`O=C1C(=O)c2cc(Cl)ccc2-c2ccccc21`: the T/C (dose: 50.0 mg/kg/injection, schedule: Q01DX001 (ip), vehicle: carboxymethylcellulose (CMC)) is 100 % of control; the T/C under setting [4] was 102 % of control; the T/C under setting [5] is 100 % of control; the T/C under setting [6] is 105 % of control.
With `CCN(CC)CCCOC(=O)c1ccc(N)cc1`, the T/C by setting is: under setting [7], 103 % of control; (dose: 25.0 mg/kg/injection, schedule: Q01DX009 (ip), vehicle: saline) 97 % of control; (dose: 50.0 mg/kg/injection, schedule: Q01DX009 (ip), vehicle: saline) 98 % of control.
With `CSc1ncc2c(=O)n(-c3ccccc3)[nH]c2n1`, the T/C under setting [13] is 103 % of control, the T/C under setting [14] is 97 % of control and the T/C under setting [15] is 87 % of control.
For `CC(C)CCCC(C)C1CCC2C3CC(=O)OC4CC(Br)CCC4(C)C3CCC12C` (stereo not given), the T/C is 101 % of control under setting [1], 101 % of control under setting [2] and 102 % of control under setting [3].
`CC(C)CCOP(=S)(N1CC1)N1CC1`: the T/C was 101 % of control (dose: 2.0 mg/kg/injection, schedule: Q01DX015 (ip), vehicle: carboxymethylcellulose (CMC)); 103 % of control (dose: 4.0 mg/kg/injection, schedule: Q01DX015 (ip), vehicle: carboxymethylcellulose (CMC)); 117 % of control (dose: 44.4 mg/kg/injection, schedule: Q01DX001 (ip), vehicle: carboxymethylcellulose (CMC)); 164 % of control under setting [4].
On to `COC(=O)C1=C(C(=O)OC)C2(C)OC1C1OC12` (stereo not given), for which the T/C by setting is: (dose: 12.5 mg/kg/injection, schedule: Q01DX009 (ip), vehicle: Klucel (hydroxypropylcellulose) (HPC)) 97 % of control; (dose: 25.0 mg/kg/injection, schedule: Q01DX009 (ip), vehicle: Klucel (hydroxypropylcellulose) (HPC)) 90 % of control.
As for `Cc1ccc(NC(=O)OC(C)C)c(C)c1`, the T/C runs as follows: under setting [10], 100 % of control; under setting [11], 100 % of control; under setting [12], 96 % of control.
With `O=C(Nc1ccccc1)OC1CCCCC1OC(=O)Nc1ccccc1` (stereo not given), the T/C reads like this: under setting [16], 87 % of control; under setting [17], 107 % of control; under setting [18], 97 % of control.
